“And” between values parts separate entries of the source, which are not always exact repeats. Equal entries are not always repeated.
Tests used:
[1] = tested on: MRSA (G+) strain ATCC 43300; assay: Antimicrobial growth inhibition (CO-ADD), MRSA; assay type: cell-based, Staphylococcus aureus
Description: (§1) Compounds 1−3 and 5−12 were assayed against a selection of medically important pathogenic microorganisms (MRSA, E. coli, K. pneumoniae, A. baumanii, P. aeruginosa, C. albicans, C. neoformans), Table 4. […] To the best of our knowledge this compound had not been tested against any drug resistant strain of Gram-positive bacterium until this study.
(§2) The antimicrobial activity testing was performed by the Community for Antimicrobial Drug Discovery (CO-ADD). Compounds were assayed against a range of both Gram negative and Gram positive bacteria (see Supplementary Materials S3) including methicillin-resistant Staphylococcus aureus (MRSA) (G+), Escherichia coli (G-), Klebsiella pneumoniae (G-), Acinetobacter baumannii (G-), Pseudomonas aeruginosa (G-) together with two species of fungus (Candida albicans and Cryptococcus neoformans).
(§3) S3. Antimicrobial activity testing methodology
(§4) The compounds submitted to CO-ADD were evaluated in duplicate (n = 2) against seven microorganisms (five bacteria and two fungi) at a concentration of 32 µg/mL in a 384-well, non-binding surface plate (NBS) for each bacterial/fungal strain, keeping the final DMSO concentration to a maximum of 1% DMSO. All bacteria were cultured in cation-adjusted Mueller-Hinton broth (CAMHB) at 37 °C overnight. A sample of each culture was then diluted 40-fold in fresh broth and incubated at 37 °C for 1.5-3 h. The resultant mid-log phase cultures were diluted (CFU/mL measured by OD600), then added to each well of the compound containing plates, giving a cell density of 5x10^5 CFU/mL and a total volume of 50 µL. All the plates were covered and incubated at 37 °C for 18 h without shaking. […] Inhibition of bacterial growth was determined measuring absorbance at 600 nm (OD600) using a Tecan M1000 Pro mon-ochromator plate reader. […]
(§5) 2 h. The absorbance was measured using a Biotek Synergy HTX plate reader. The percentage of growth inhibition was calculated for each well, using negative control (medium only) and positive control (bacteria without inhibitors) on the same plate as the references. The significance of inhibition values was determined by modified Z-scores, calculated using the median and MAD of the samples (no controls) on the same plate. Samples with inhibition value above 80% and Z-score above 2.5 for either replicate (n = 2 on different plates) were classed as actives.
(§6) Colistin and vancomycin were used as positive bacterial inhibitor standards for Gram-negative and Gram-positive bac-teria, respectively. Fluconazole was used as a positive fungal inhibitor standard for C. albicans and C. neoformans. The antibiotics were provided in four concentrations, with two above and two below its MIC value, and plated into the first eight wells of column 23 of the 384-well NBS plates. The quality control (QC) of the assays was determined by the antimicrobial controls and the Z’-factor (using positive and negative controls). Each plate was deemed to fulfil the qual- […]
(§7) full growth inhibition at their highest concentration, and no growth inhibition at their lowest concentration. The seven […]
(§8) test microorganisms were Staphylococcus aureus MRSA (ATCC 43300), Escherichia coli (ATCC 25922), Klebsiella pneu-moniae (ATCC 700603), Acinetobacter baumanii (ATCC19606), Pseudomonas aeruginosa (ATCC 27853), Candida albicans (ATCC 90028) and Cryptococcus neoformans var. grubii (H99; ATCC 208821).
(§9) S4. Anthelmintic activity testing methodology
(§10) Dose-response evaluations were carried out to estimate the half-maximal inhibitory concentrations (IC50 values) for compounds against Haemonchus contortus (Haecon-5 strain) exsheathed third-stage larvae (xL3s). H. contortus were maintained in experimental sheep and procured in accordance with the institutional animal ethics guidelines and the regulations of Australia (permit no. 1714374; University of Melbourne). Immediately prior to use, third-stage larvae (L3s) were exsheathed and sterilised by incubation in 0.15% (v/v) bleach at 38 °C for 20 min, followed by washes in […]

[2] = tested on: C. neoformans var. grubii strain ATCC 208821; assay: Antimicrobial growth inhibition (CO-ADD), C. neoformans; assay type: cell-based, Cryptococcus neoformans; settings: 32 µg/mL, duplicate (n = 2) values
Description: as §1, §2, §3
(§11) The compounds submitted to CO-ADD were evaluated in duplicate (n = 2) against seven microorganisms (five bacteria and two fungi) at a concentration of 32 µg/mL in a 384-well, non-binding surface plate (NBS) for each bacterial/fungal strain, keeping the final DMSO concentration to a maximum of 1% DMSO. All bacteria were cultured in cation-adjusted […]
(§12) Fungal strains were cultured for 3 days on Yeast Extract-Peptone Dextrose (YPD) agar at 30 °C. A yeast suspension of 1 x 10^6 to 5 x 10^6 CFU/mL (as determined by OD530) was prepared from five colonies. The suspension was subsequently diluted and added to each well of the compound-containing plates giving a final cell density of fungi suspension of 2.5 x 10^3 CFU/mL and a total volume of 50 µL. All plates were covered and incubated at 35 °C for 24 h without shaking. […]
as §5, with “Growth inhibition of C. albicans was determined measuring absorbance at 530 nm (OD530), while the growth inhibition of C. neoformans was determined measuring the difference in absorbance between 600 and 570 nm (OD600-570), after the addition of resazurin (0.001% final concentration) and incubation at 35 °C for an additional 2 h.” for “2 h.”
as §6, §7, §8, §9
Dose-response evaluations were carried out to estimate the half-maximal inhibitory concentrations (IC50 values) for compounds against Haemonchus contortus (Haecon-5 strain) exsheathed third-stage larvae (xL3s). H. contortus were maintained in experimental sheep and procured in accordance with the institutional animal ethics guidelines and the […]

[3] = tested on: C. albicans (yeast) ATCC 90028; assay: Antimicrobial growth inhibition (CO-ADD), C. albicans; assay type: cell-based, Candida albicans; settings: Candida albicans, ATCC90028; ATCC 90028; read-out: MIC C. albicans
Description: as §1, §2, §3, §11, §12, §5, §6, §7, §8, §9
Dose-response evaluations were carried out to estimate the half-maximal inhibitory concentrations (IC50 values) for compounds against Haemonchus contortus (Haecon-5 strain) exsheathed third-stage larvae (xL3s). H. contortus were maintained in experimental sheep and procured in accordance with the institutional animal ethics guidelines and the regulations of Australia (permit no. 1714374; University of Melbourne). Immediately prior to use, third-stage larvae (L3s) were exsheathed and sterilised by incubation in 0.15% (v/v) bleach at 38 °C for 20 min, followed by washes in sterile saline at room temperature (22-24 °C). […]

[4] = tested on: E. Coli (G-) strain ATCC 25922; assay: Antimicrobial growth inhibition (CO-ADD), E. coli; assay type: cell-based, Escherichia coli
Description: as §1, §2, §3, §4, §5, §6, §7, §8, §9, §10

[5] = tested on: A. baumannii (G-) strain ATCC 19606; assay: Antimicrobial growth inhibition (CO-ADD), A. baumannii; assay type: cell-based, Acinetobacter baumannii
Description: as §1, §2, §3, §4, §5, §6, §7, §8, §9, §10

[6] = tested on: human red blood cells; assay: Haemolysis assay (CO-ADD); assay type: cell-based
[7] = 32 µg/mL, duplicate (n = 2) values

MIC ([1]; Staphylococcus aureus, ATCC 43300, MIC = concentration at which growth inhibited by ≥80%, range 0.25−32 µg/mL, read-out: MIC MRSA): > 32 µg/mL
MIC [3]: > 32 µg/mL
MIC ([4]; Escherichia coli, ATCC25922, ATCC 25922, MIC = concentration at which growth inhibited by ≥80%, read-out: MIC E. coli): > 32 µg/mL
MIC ([5]; Acinetobacter baumannii, ATCC19606, ATCC 19606, read-out: MIC A. baumannii): > 32 µg/mL
SMILES: COc1c(Br)cc(CC#N)c(O)c1Br [Compound 8, 2-(3,5-dibromo-2-hydroxy-4-methoxyphenyl)acetonitrile]
% inhibition MRSA [1, 7]: 8.5%
inhibition at 32 µg/mL ([1]; Staphylococcus aureus, 32 µg/mL, duplicate (n = 2) values, read-out: % inhibition MRSA): 7.6%
% inhibition C. neoformans [2]: 11.1% and 4.0%
% inhibition E. coli [4, 7]: 16.9%
inhibition at 32 µg/mL ([4]; Escherichia coli, ATCC25922, 32 µg/mL, duplicate (n = 2) values, read-out: % inhibition E. coli): 12.7%
% inhibition A. baumannii [5, 7]: 7.5%
inhibition at 32 µg/mL ([5]; Acinetobacter baumannii, ATCC19606, 32 µg/mL, duplicate (n = 2) values, read-out: % inhibition A. baumannii): 11%
Haemolysis (HC10) [6]: >32 µg/mL

From publication PMC9503778, “Targeted Isolation of Antibiotic Brominated Alkaloids from the Marine Sponge Pseudoceratina durissima Using Virtual Screening and Molecular Networking” (Marine Drugs, 2022)
